What all share (type): biochemical
One experiment concerns the target T1, recombinant human VAP-1 (Homo sapiens, UniProt Q16853).
T1 construct: purchased R&D systems
T1 sequence (Q16853 1-763): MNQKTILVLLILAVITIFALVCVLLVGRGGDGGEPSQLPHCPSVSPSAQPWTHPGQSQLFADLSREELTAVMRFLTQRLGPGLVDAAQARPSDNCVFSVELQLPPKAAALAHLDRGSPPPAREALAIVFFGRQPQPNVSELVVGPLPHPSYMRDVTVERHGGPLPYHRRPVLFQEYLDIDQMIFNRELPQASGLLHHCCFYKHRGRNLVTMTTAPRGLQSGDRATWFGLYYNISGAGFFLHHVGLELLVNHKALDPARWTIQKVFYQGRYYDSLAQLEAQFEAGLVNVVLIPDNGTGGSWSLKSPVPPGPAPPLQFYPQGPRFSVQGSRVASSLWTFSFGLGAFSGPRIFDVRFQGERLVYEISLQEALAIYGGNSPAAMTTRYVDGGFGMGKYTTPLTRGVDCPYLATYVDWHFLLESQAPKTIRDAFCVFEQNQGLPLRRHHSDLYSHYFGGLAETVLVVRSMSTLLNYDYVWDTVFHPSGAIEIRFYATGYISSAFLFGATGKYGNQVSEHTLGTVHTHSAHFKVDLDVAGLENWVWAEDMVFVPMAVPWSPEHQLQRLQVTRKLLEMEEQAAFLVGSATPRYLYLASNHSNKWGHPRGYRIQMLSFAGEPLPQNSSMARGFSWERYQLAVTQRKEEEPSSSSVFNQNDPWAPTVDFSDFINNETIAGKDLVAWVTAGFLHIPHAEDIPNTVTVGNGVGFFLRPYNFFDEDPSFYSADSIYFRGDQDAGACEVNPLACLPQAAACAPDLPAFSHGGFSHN
As to the kind of experiment: Activity on recombinant human VAP-1, Amplex Red HRP-coupled hydrogen peroxide assay, benzylamine substrate. Conditions: recombinant human VAP-1, benzylamine substrate, read-out: Inhibitory Activity (IC50, nM) human VAP-1. The protocol:
(§1) The compounds according to the present technology were evaluated in terms of activity on recombinant human VAP-1 (R&D systems) by measuring the level of hydrogen peroxide in horseradish peroxidase (HRP)-coupled reaction using Amplex Red Hydrogen Peroxide Assay Kit (Molecular Probes, Invitrogen, USA). The experiment was carried out at room temperature using benzylamine as a substrate. In the HRP-coupled reaction, hydrogen peroxide oxidation of 10-acetyl-3,7-dihydroxyphenoxazine (Amplex Red reagent) produces resorufin, which is a highly fluorescent compound. Briefly, the test compound was dissolved in dimethyl sulfoxide (DMSO) at a concentration of 20 mM. The dose-response assessment was made by 1:3 serial dilution in DMSO, thereby creating an 8 point curve. The concentration of the upper part was controlled according to the efficacy of the compounds, followed by dilution with a reaction buffer solution to obtain a final DMSO concentration less than 1%. To each well of a 96 black well plate, human VAP-1 purified in 50 mM sodium phosphate buffer solution (pH7.4) was added. The test compounds dissolved in DMSO were incubated with the human VAP-1 enzymes at 37° C. for 30 minutes. After 30-minute incubation, each well is added with a reaction mixture containing 200 uM Amplex Red reagent prepared from 50 mM sodium phosphate buffer solution (pH 7.4), 1 mM benzylamine, and 1 U/mL HRP. Fluorescence intensity was measured at several time points during 1-2 hours using a microplate reader (Flexstation3, Molecular Devices) under the wavelength condition exciting at 544 nm and reading the emission at 590 nm. The inhibitory effect of the compounds was measured as a decrease (%) in the signal rate as compared to the control group without any inhibitor (only diluted DMSO). Data was fixed to a logistic model with four variables and IC50 value was calculated using GraphPad Prism program.

The target of experiment [1] is T2, recombinant human MAO-B (monoamine oxidase-B) (Homo sapiens, UniProt P27338).
T2 construct: purchased Sigma-Aldrich
T2 sequence (P27338 1-520): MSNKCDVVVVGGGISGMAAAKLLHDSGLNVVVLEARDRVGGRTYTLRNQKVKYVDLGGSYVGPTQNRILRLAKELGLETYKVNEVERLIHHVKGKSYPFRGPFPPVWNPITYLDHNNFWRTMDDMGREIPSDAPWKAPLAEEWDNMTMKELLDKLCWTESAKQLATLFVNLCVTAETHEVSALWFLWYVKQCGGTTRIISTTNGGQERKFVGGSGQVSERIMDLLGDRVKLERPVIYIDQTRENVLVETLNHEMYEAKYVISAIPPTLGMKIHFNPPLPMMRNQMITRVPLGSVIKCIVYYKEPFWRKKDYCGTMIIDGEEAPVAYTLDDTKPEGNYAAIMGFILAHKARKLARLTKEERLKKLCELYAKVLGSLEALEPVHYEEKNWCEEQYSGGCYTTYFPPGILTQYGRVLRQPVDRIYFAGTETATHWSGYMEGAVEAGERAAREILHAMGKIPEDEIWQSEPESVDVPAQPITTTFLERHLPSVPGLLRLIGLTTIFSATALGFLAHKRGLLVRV
As to the kind of experiment: Activity on recombinant human MAO-B, Amplex Red method, 1 mM benzylamine substrate. The conditions noted are these: 1 mM benzylamine. Here is the method:
as §1
(§2) In addition, the compounds according to the present technology were evaluated in terms of activity on a recombinant human MAO-A (monoamine oxidase-A, Sigma-Aldrich) and a recombinant human MAO-B (monoamine oxidase-B, Sigma-Aldrich) by using as substrates, 0.5 mM tyramine and 1 mM benzylamine, respectively, with a method similar to the activity evaluation method for recombinant human VAP-1. The compounds according to the present technology were also evaluated in terms of activity on a recombinant human DAO (diamine oxidase, R&D systems) by using as a substrate 1 mM putrescine with a method similar to the activity evaluation method for recombinant human VAP-1.

The target of experiment [2] is T3, recombinant human DAO (diamine oxidase) (Homo sapiens, UniProt P19801).
T3 construct: purchased R&D systems
T3 sequence (P19801 20-751): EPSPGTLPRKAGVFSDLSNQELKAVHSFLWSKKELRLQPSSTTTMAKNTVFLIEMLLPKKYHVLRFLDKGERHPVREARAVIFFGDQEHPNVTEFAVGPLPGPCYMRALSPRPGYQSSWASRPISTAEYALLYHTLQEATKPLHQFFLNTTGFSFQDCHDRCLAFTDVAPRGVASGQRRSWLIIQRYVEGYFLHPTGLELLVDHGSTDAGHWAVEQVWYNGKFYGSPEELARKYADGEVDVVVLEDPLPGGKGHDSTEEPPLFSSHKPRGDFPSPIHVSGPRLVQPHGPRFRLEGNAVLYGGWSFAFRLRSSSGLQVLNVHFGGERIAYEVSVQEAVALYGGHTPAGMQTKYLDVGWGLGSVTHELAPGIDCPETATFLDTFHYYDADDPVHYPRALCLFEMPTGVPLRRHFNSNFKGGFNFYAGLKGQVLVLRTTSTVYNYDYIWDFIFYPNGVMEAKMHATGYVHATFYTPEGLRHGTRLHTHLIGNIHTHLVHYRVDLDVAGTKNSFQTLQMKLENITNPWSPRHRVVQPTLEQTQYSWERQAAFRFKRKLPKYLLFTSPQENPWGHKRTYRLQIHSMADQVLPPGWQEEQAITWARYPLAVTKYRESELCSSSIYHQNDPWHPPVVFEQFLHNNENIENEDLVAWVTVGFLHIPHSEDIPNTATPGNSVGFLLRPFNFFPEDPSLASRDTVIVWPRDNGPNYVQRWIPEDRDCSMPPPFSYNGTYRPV
Kind of experiment: Activity on recombinant human DAO, Amplex Red method, 1 mM putrescine substrate. Conditions: recombinant human DAO; for IC50: read-out: Inhibitory Activity (IC50, nM) DAO. The protocol: as §1, §2

Setting [3] is: 1 mM putrescine, * = between 10 and 100 nM, ** = between 300 and 1000 nM.

SMILES strings stand for the structures. Structures can show the parent of a compound that is named as a salt. Where two headings read alike, the source gives them in different places.

The source of these data is US11492335B2, “Aryl or heteroaryl triazolone derivatives or salts thereof, or pharmaceutical compositions comprising the same” (YUHAN CORPORATION, priority 2018, dated 2022).

In the case of `NC/C(=C/F)Cn1ncn(-c2cc(F)c(Br)c(F)c2)c1=O` [Example 19, 2-[(2Z)-2-(aminomethyl)-3-fluoroprop-2-en-1-yl]-4-(4-bromo-3,5-difluorophenyl)-2,4-dihydro-3H-1,2,4-triazol-3-one], the IC50 came to 3.3 nM on recombinant human VAP-1 (30 min preincubation at 37° C.); 4.4 nM in experiment [1] (read-out: Inhibitory Activity (IC50, nM) MAO-B); 13 nM in experiment [2] (setting [3]).
As for `Cc1c(-c2ccc3c(c2)OCO3)cccc1-n1cnn(C/C(=C/F)CN)c1=O` [Example 111, 2-[(2E)-2-(aminomethyl)-3-fluoroprop-2-en-1-yl]-4-[3-(1,3-benzodioxol-5-yl)-2-methylphenyl]-2,4-dihydro-3H-1,2,4-triazol-3-one], the IC50 at recombinant human VAP-1 (30 min preincubation at 37° C.) is 2.8 nM. Besides, in experiment [1], the “Inhibitory Activity (IC50, nM) MAO-B” value is listed as “no inhibitory”. Besides, the “Inhibitory Activity (IC50, nM) DAO” value in experiment [2] (setting [3]) was “no inhibitory”.
With `Cc1cc(-c2ccc(-c3nnc[nH]3)cc2)cnc1-n1cnn(C/C(=C/F)CN)c1=O` [Example 136, 2-[(2E)-2-(aminomethyl)-3-fluoroprop-2-en-1-yl]-4-{3-methyl-5-[4-(4H-1,2,4-triazol-3-yl)phenyl]pyridin-2-yl}-2,4-dihydro-3H-1,2,4-triazol-3-one], the IC50 on recombinant human VAP-1 (30 min preincubation at 37° C.) was 0.62 nM; in experiment [2] (setting [3]) it was 6100 nM.
For `Cc1ncc(-c2cccc(-n3cnn(C/C(=C/F)CN)c3=O)c2)cn1` [Example 91, 2-[(2E)-2-(aminomethyl)-3-fluoroprop-2-en-1-yl]-4-[3-(2-methylpyrimidin-5-yl)phenyl]-2,4-dihydro-3H-1,2,4-triazol-3-one hydrochloride], in that order: 1.5 nM and 13 nM.
With `NC/C(=C\F)Cn1ncn(-c2ncc(-c3cccc(-c4nnn[nH]4)c3)s2)c1=O` [Example 230, 2-[(2E)-2-(aminomethyl)-3-fluoroprop-2-en-1-yl]-4-{5-[3-(1H-tetrazol-5-yl)phenyl]-1,3-thiazol-2-yl}-2,4-dihydro-3H-1,2,4-triazol-3-one], the concentration for half-maximal inhibition (IC50) on recombinant human VAP-1 turned out to be 0.53 nM; in experiment [2] (1 mM putrescine substrate), 2.7 nM.
In the case of `CC(=O)Nc1cc(-c2cccc(-n3cnn(C/C(=C/F)CN)c3=O)c2C)ccn1` [Example 109, N-[4-(3-{1-[(2E)-2-(aminomethyl)-3-fluoroprop-2-en-1-yl]-5-oxo-1,5-dihydro-4H-1,2,4-triazol-4-yl}-2-methylphenyl)pyridin-2-yl]acetamide], the IC50 at recombinant human VAP-1 (30 min preincubation at 37° C.) is 8.1 nM; in experiment [2] (setting [3]) it was 740 nM.
For `Cc1cc(-c2ccc(-c3nnc[nH]3)cc2)cnc1-n1cnn(C/C(=C\F)CN)c1=O` [Example 135, 2-[(2Z)-2-(aminomethyl)-3-fluoroprop-2-en-1-yl]-4-{3-methyl-5-[4-(4H-1,2,4-triazol-3-yl)phenyl]pyridin-2-yl}-2,4-dihydro-3H-1,2,4-triazol-3-one] the same measures were 3.2 nM and 520 nM.
On to `Cc1c(-c2ccc(N3CCOCC3)nc2)cccc1-n1cnn(C/C(=C/F)CN)c1=O` [Example 110, 2-[(2E)-2-(aminomethyl)-3-fluoroprop-2-en-1-yl]-4-{2-methyl-3-[6-(morpholin-4-yl)pyridin-3-yl]phenyl}-2,4-dihydro-3H-1,2,4-triazol-3-one], for which the IC50 on recombinant human VAP-1 (30 min preincubation at 37° C.) is 4.2 nM. Moreover, the “Inhibitory Activity (IC50, nM) MAO-B” value in experiment [1] is listed as “no inhibitory”. Moreover, the “Inhibitory Activity (IC50, nM) DAO” value in experiment [2] (setting [3]) is “no inhibitory”.
`CC(=O)Nc1nc2cc(-c3cc(C)c(-n4cnn(C/C(=C/F)CN)c4=O)cn3)ccc2s1` [Example 128, N-[5-(5-{1-[(2E)-2-(aminomethyl)-3-fluoroprop-2-en-1-yl]-5-oxo-1,5-dihydro-4H-1,2,4-triazol-4-yl}-4-methylpyridin-2-yl)-1,3-benzothiazol-2-yl]acetamide]: the results for the IC50 (on recombinant human VAP-1 (30 min preincubation at 37° C.); in experiment [2] (setting [3])) were 0.82 nM and less than 100 nM, respectively.
For `Cc1cc(-c2cccc(-c3nnn[nH]3)c2)cnc1-n1cnn(C/C(=C/F)CN)c1=O` [Example 144, 2-[(2E)-2-(aminomethyl)-3-fluoroprop-2-en-1-yl]-4-{3-methyl-5-[3-(1H-tetrazol-5-yl)phenyl]pyridin-2-yl}-2,4-dihydro-3H-1,2,4-triazol-3-one], in that order: 3.3 nM and 1400 nM.
As for `Cc1c(-c2ccc3c(c2)OCCO3)cccc1-n1cnn(C/C(=C/F)CN)c1=O` [Example 112, 2-[(2E)-2-(aminomethyl)-3-fluoroprop-2-en-1-yl]-4-[3-(2,3-dihydro-1,4-benzodioxin-6-yl)-2-methylphenyl]-2,4-dihydro-3H-1,2,4-triazol-3-one], the IC50 at recombinant human VAP-1 (30 min preincubation at 37° C.) came out at 2.5 nM. Further, the “Inhibitory Activity (IC50, nM) MAO-B” value in experiment [1] was “no inhibitory”. Moreover, the “Inhibitory Activity (IC50, nM) DAO” value in experiment [2] (setting [3]) was “no inhibitory”.
